In US20070191324A1, “Methods for treatment or prophylaxis of aldosterone-mediated pathogenic effects in a subject using an epoxy-steroidal aldosterone antagonist” (priority 1999, published 2007):

Assays:
[1] = system: patients with low-renin hypertension; assay: Eplerenone versus losartan in low-renin hypertension, 16 weeks (Examples A-16, D-5); format: in vivo, human
Excerpt: Patients will continue on therapy until Week 16. Table […] illustrates the above-described dosing scheme. […] Plasma renin will be determined at screening; serum aldosterone, plasma renin, and plasma cortisol will be determined at Weeks 0, 8, and 16. […] A 12-lead electrocardiogram will be done at Weeks 0 and 16. Physical examinations will be completed at screening and at Week 16. […] Secondary measures of efficacy will be the following: […] Study design is illustrated in FIG. D-16. […] At Weeks 8 and 16, BP, RAAS hormone profile, and safety were assessed.

[2] = system: human subject; assay: Blood pressure, plasma renin activity and serum aldosterone as a function of eplerenone dose (FIG. 10-12); format: in vivo; conditions: increasing doses
Excerpt: For example, appropriate dosing can be determined by monitoring systolic blood pressure. […] Accordingly, subjects can be treated with doses of one or more epoxy-steroidal compounds according to the present invention by increasing doses of such compounds in a step-wise manner until a minimal levels of systolic blood pressure decrease are achieved while, at the same time, also maintaining serum levels of potassium within the normal range. Similarly, appropriate dosing can also be determined by monitoring diastolic blood pressure. […] Accordingly, subjects can be treated with doses of one or more epoxy-steroidal compounds according to the present invention by increasing doses of such compounds in a step-wise manner until a minimal level of diastolic blood pressure change are achieved while, at the same time, also maintaining serum levels of potassium within the normal range. Appropriate dosing can also be determined by monitoring plasma renin activity. […] Accordingly, subjects can be treated with doses of one or more epoxy-steroidal compounds according to the present invention by increasing doses of such compounds in a step-wise manner until the desired level of plasma renin activity is achieved while, at the same time, maintaining serum levels of potassium within the normal range. Appropriate dosing can also be determined by monitoring serum aldosterone levels. […] Accordingly, subjects can be treated with doses of one or more epoxy-steroidal compounds according to the present invention by increasing doses of such compounds in a step-wise manner until the desired level of serum aldosterone is achieved while, at the same time, also maintaining serum levels of potassium within the normal range.

[3] = Pharmacokinetics in moderate hepatic impairment vs matched normal subjects (Example A-13); conditions: for AUC / Cmax / AUC(0-inf) / half-life / Tmax: human, plasma, 400 mg; for AUC(0-inf): Single Dose AUC(0-∞), linear kinetics assessment; for half-life: T1/2, Mean;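 as to all read-outs here: impaired subjects were Child-Pugh Class B with ascites, compared against healthy volunteers matched for sex, age, weight and smoking, blood sampled before and after dosing on Days 1 and 7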
[4] = Week 8 (monotherapy), EPL 100-200 mg QD, LOS 50-100 mg QD
[5] = Week 16, after allowed addition of HCTZ
[6] = Mean, Multiple Dose 400 mg QD, Normal
[7] = Mean, Single Dose 400 mg, Normal
[8] = Mean, Multiple Dose 400 mg QD, Moderate
[9] = Mean, Single Dose 400 mg, Moderate
[10] = least squares mean, Multiple Dose 400 mg QD, Moderate Impairment
[11] = least squares mean, Single Dose 400 mg, Moderate Impairment

COC(=O)[C@@H]1CC2=CC(=O)CC[C@]2(C)[C@@]23O[C@@H]2C[C@@]2(C)[C@@H](CC[C@@]24CCC(=O)O4)[C@H]13 [Eplerenone, Pregn-4-ene-7,21-dicarboxylic acid, 9,11-epoxy-17-hydroxy-3-oxo-, γ-lactone, methyl ester, (7α, 11α, 17β)-]
cumulative percentage of patients requiring HCTZ add-on therapy ([1]; 16 weeks): 32.5% | increase in active renin levels ([1]; Week 8): +50.1% | increase in serum aldosterone levels ([1]; Week 8): +74.7% | mean change from baseline in DBP [1, 4]: −9.3 mmHg | mean change from baseline in SBP [1, 4]: −15.8 mmHg | increase in active renin levels ([1]; Week 16): +73.0% | increase in serum aldosterone levels ([1]; Week 16): +89.8% | mean change from baseline in DBP [1, 5]: −10.8 mmHg | mean change from baseline in SBP [1, 5]: −18.3 mmHg | safety and tolerability ([1]; in vivo): safe and well tolerated | systolic blood pressure as a function of dose ([2]; FIG. 10): decreased systolic blood pressure | diastolic blood pressure as a function of dose ([2]; FIG. 11): decreased diastolic blood pressure | plasma renin activity as a function of dose ([2]; FIG. 12): increased levels of plasma renin activity | serum aldosterone as a function of dose ([2]; FIG. 12): increased levels of serum aldosterone | time to steady-state concentrations ([3]; 400 mg QD dosing, both subject groups): by the fourth day | mean AUC higher in moderate impairment than matched normal subjects ([3]; following single dosing): 41-50% | AUC ([3]; Mean, Multiple Dose 400 mg QD, Moderate hepatic impairment): 48800 ng·h/mL | AUC [3, 6]: 33800 ng·h/mL | AUC ([3]; Mean, Single Dose 400 mg, Moderate hepatic impairment): 51400 ng·h/mL | AUC [3, 7]: 31000 ng·h/mL | Cmax [3, 8]: 4170 ng/mL | Cmax [3, 6]: 3880 ng/mL | Cmax [3, 9]: 3790 ng/mL | Cmax [3, 7]: 3840 ng/mL | Cmax [3, 10]: 3810 ng/mL | Cmax ([3]; least squares mean, Multiple Dose 400 mg QD, Normal): 3670 ng/mL | Cmax [3, 11]: 3410 ng/mL | Cmax ([3]; least squares mean, Single Dose 400 mg, Normal): 3810 ng/mL | AUC(0-inf) ([3]; Moderate Hepatic Impairment): 49800 ng·h/mL | AUC(0-inf) ([3]; Normal): 28700 ng·h/mL | half-life ([3]; Multiple Dose 400 mg QD, Moderate): 8.07 h | half-life ([3]; Multiple Dose 400 mg QD, Normal): 7.61 h | half-life ([3]; Single Dose 400 mg, Moderate): 6.78 h | half-life ([3]; Single Dose 400 mg, Normal): 6.31 h | Tmax [3, 8]: 2.81 h | Tmax [3, 9]: 2.56 h | Tmax [3, 7]: 2.03 h | Tmax [3, 10]: 2.9 h | Tmax [3, 11]: 2.7 h
